Holding throughout (format): in vitro ADME
Data set [1] deals with T1, CYP3A4 (Homo sapiens, UniProt P08684).
T1 construct: co-incubation ticagrelor-O-Glu with selective P450 probe substrates in HLM; tissue XenoTech LLC; host or cells: pooled human liver microsomes
Description: CYP3A4 inhibition in HLM (testosterone 6β-hydroxylase). The conditions noted are these: human liver microsomes, pH 7.4, probe testosterone (80 μM), 6β-hydroxy testosterone formation. The protocol: The potential inhibitory effects of ticagrelor-O-Glu on the activities of major CYPs, i.e., CYP2B6, CYP2C8, CYP2C9, CYP2C19, CYP2D6, and CYP3A4, were evaluated by co-incubation ticagrelor-O-Glu with selective P450 probe substrates in HLM. Each incubation mixture containing 0.2 mg/ml HLM, ticagrelor-O-Glu and respective substrate (the final substrate concentrations are close to or less than the Km values: 150 μM bupropion, 1.26 μM amodiaquine, 10 μM diclofenac, 20 μM mephenytoin, 20 μM dextromethorphan and 80 μM testosterone (in house data)) in potassium phosphate buffer (100 mM, pH 7.4) was pre-incubated at 37°C for 5 min. Then, NADPH (10 mM) was added to initiate the reaction. The final volume of the incubation mixture was 100 μl. After incubation at 37°C for specific time points, the reaction was terminated by the addition of 200 μl of ice-cold methanol solution with internal standards (diazepam and furafylline). […] The formation of respective metabolites was determined to reflect P450 isoform activities. The metabolites quantified for CYP2B6, CYP2C8, CYP2C9, CYP2C19, CYP2D6, and CYP3A4 were hydroxy bupropion, N-Desethyl amodiaquine, 4′-hydroxylation diclofenac, S-4-hydroxy mephenytoin, dextrorphan and 6β-hydroxy testosterone, respectively.
The percent inhibition relative to the control was calculated to indicate the UGTs or CYPs inhibition. […]

Data set [2] has as its target T2, UGT1A1 (Homo sapiens, UniProt P22309).
T2 sequence (P22309 26-533): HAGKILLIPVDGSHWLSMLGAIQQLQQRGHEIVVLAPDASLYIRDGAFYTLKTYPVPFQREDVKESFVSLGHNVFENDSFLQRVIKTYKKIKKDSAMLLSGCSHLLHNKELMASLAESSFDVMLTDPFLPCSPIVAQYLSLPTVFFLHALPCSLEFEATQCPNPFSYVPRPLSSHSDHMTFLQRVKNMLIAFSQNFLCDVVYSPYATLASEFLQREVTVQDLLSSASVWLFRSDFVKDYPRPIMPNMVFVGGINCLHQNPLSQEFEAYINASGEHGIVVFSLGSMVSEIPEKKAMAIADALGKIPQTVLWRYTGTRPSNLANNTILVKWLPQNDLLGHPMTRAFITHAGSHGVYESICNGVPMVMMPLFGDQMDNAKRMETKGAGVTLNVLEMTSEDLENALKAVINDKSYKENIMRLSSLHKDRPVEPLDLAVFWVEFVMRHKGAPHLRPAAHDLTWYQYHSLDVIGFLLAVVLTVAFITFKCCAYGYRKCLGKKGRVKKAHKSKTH
Description: Ticagrelor glucuronidation by recombinant human UGT1A1. Further details: purchased BD Gentest; host or cells: baculovirus-infected insect cells. The conditions noted are these: recombinant human UGT1A1, pH 7.4. The protocol:
(§1) Ticagrelor glucuronidation was investigated in an in vitro incubation system by using HLM, HIM, and recombinant human UGTs. The incubation system consisted of enzyme sources (HLM, HIM, or human recombinant UGTs), various concentrations of ticagrelor (dissolved in 50% methanol, 1% v/v, 1, 2, 5, 10, 20, 50, 100, 200, 500 μM of final concentration), alamethicin (50 μg/mg protein), 5 mM MgCl2, 100 mM tris-HCL buffer (pH 7.4), and 5 mM UDPGA in a total volume of 100 μl. Alamethicin is a pore-forming polypeptide used to activate UGTs in HLM and HIM ([Fisher et al., 2000]). Preliminary studies were conducted to determine the optimal protein concentrations and incubation times. Linear conditions of ticagrelor-O-Glu formation from ticagrelor, i.e., HLM, 0.2 mg of protein/ml and 60 min, HIM, 0.2 mg of protein/ml and 60 min, and recombinant human UGTs, 0.2 mg of protein/ml and 60 min were selected. The incubation mixture without UDPGA was placed on ice for 15 min to activate UGT by alamethicin. […]
(§2) Kinetic analyses were performed using the mean values of triplicate determinations with either pooled HLM, HIM, or recombinant human UGTs. All data were analyzed by nonlinear regression analysis using the GraphPad Prism 6 (GraphPad Software Inc., CA, United States). […] Intrinsic clearance (CLint) was calculated by dividing Vmax by Km.

For data set [3], the target named is T3, recombinant human UGT2B17 (Homo sapiens, UniProt O75795).
T3 construct: purchased BD Gentest; host or cells: baculovirus-infected insect cells
T3 sequence (O75795 24-530): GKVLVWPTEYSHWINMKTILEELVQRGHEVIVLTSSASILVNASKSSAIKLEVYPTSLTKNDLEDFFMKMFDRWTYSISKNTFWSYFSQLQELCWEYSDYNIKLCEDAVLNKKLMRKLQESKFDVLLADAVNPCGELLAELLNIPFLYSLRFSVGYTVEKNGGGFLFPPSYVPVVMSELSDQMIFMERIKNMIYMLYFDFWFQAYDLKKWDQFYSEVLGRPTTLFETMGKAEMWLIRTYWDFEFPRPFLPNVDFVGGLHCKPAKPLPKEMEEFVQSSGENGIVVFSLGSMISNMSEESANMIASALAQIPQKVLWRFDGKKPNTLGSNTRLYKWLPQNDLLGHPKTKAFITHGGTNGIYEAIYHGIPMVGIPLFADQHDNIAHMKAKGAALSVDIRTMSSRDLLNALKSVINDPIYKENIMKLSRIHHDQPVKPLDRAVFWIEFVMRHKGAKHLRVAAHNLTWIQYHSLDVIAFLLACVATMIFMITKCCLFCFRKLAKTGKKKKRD
As to the kind of experiment: Ticagrelor glucuronidation screen, recombinant human UGT2B17. The conditions noted are these: 10 μM ticagrelor. The protocol:
as §1, with “alamethicin. After pre-incubation for 5 min at 37°C, the reactions were started by the addition of UDPGA. After another 60 min of incubation at 37°C, the reaction was terminated by adding 100 μl of acetonitrile containing internal standard (diazepam). The mixture vortexed for 2 min and then centrifuged at 14,000 rpm for 10 min at 4°C.” for “alamethicin.”

Data set [4] deals with T4, UGT1A8 (Homo sapiens, UniProt Q9HAW9).
T4 construct: purchased BD Gentest; host or cells: baculovirus-infected insect cells
T4 sequence (Q9HAW9 26-530): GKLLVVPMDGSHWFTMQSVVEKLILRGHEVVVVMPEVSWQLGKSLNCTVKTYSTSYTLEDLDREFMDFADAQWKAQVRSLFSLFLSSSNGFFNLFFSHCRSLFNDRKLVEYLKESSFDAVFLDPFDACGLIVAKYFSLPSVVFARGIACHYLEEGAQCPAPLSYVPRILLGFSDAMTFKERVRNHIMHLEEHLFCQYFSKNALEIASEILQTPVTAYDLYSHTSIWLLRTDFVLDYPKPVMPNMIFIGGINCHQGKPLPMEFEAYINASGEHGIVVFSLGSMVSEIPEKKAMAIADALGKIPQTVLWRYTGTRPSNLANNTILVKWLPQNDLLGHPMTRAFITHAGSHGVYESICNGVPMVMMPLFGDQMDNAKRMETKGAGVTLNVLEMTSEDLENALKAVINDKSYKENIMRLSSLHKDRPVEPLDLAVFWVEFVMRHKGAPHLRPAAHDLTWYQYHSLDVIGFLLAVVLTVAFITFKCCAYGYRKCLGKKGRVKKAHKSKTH
Description: Ticagrelor glucuronidation by recombinant human UGT1A8. The conditions noted are these: recombinant human UGT1A8, pH 7.4. The protocol: as §1, §2

Structures are written as SMILES. A value given as a limit tells only on which side of the number the result lay.

T1 sequence (P08684 whole entry): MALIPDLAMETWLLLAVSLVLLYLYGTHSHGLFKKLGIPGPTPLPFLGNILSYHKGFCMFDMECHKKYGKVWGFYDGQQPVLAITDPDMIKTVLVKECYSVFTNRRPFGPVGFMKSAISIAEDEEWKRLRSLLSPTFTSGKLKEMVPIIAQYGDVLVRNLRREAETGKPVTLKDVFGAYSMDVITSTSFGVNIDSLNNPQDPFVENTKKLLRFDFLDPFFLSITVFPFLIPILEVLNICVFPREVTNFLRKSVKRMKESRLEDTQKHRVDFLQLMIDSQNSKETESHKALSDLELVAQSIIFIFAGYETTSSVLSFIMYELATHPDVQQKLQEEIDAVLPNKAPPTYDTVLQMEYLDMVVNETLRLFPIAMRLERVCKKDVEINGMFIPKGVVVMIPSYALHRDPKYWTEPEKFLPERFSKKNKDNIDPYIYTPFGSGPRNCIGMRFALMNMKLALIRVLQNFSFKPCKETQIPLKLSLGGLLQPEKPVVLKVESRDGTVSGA

For orientation: IC50 means the concentration at which inhibition is half-maximal. A high value points to a need for much substance. One may read the inhibition as the relative decrease from the control value, in per cent. On to `CCCSc1nc(N[C@@H]2C[C@H]2c2ccc(F)c(F)c2)c2nnn([C@@H]3C[C@H](OCCO[C@@H]4O[C@H](C(=O)O)[C@@H](O)[C@H](O)[C@H]4O)[C@@H](O)[C@H]3O)c2n1` [Ticagrelor-O-Glu, ticagrelor-O-glucuronide], for which the concentration for half-maximal inhibition (IC50) in data set [1] (CYP3A4, testosterone 6β-hydroxylase, HLM 0.2 mg/ml) was over 100 µM. The inhibition at 100 µM in data set [1] (HLM, 100 μM ticagrelor-O-Glu, read-out: inhibition of CYP3A4 enzyme activity) came to 57.1%.
The microsomal CLint is the capacity of the preparation to metabolise the compound, expressed as a volume cleared per time. Regarding `CCCSc1nc(N[C@@H]2C[C@H]2c2ccc(F)c(F)c2)c2nnn([C@@H]3C[C@H](OCCO)[C@@H](O)[C@H]3O)c2n1` [Ticagrelor], the intrinsic metabolic clearance (microsomal CLint) in data set [2] turned out to be 0.03 µL/min/mg; in data set [4], 0.01 µL/min/mg. Moreover, the “glucuronidation activity for ticagrelor” value in data set [3] was “no glucuronidation activities”.

Source of the values: paper PMC8552062, “Contributions of UDP-Glucuronosyltransferases to Human Hepatic and Intestinal Metabolism of Ticagrelor and Inhibition of UGTs and Cytochrome P450 Enzymes by Ticagrelor and its Glucuronidated Metabolite” (Frontiers in Pharmacology, 2021).
